What was measured:
Type in all cases: in vivo, human
[1] = test system: ME/CFS patients; assay: mental fatigue self-assessment questionnaire (MFS) total score, phase II clinical study
Description: As used herein, the term “MFS” refers to a the mental fatigue self-assessment questionnaire (Johansson B et al (2010) Brain Injury 2010; 24:2-12). […] Circular coated tablets for oral use of 15 mg and matching placebos was used. The tablets were administered by research nurses at the study site. The tablets were circular coated tablets for oral use containing 15 mg OSU6162. Matching placebos were used. The start dose was 15 mg OSU6162 twice daily (before breakfast and lunch) during 1 week with dose increase up to 30 mg twice daily during the following week. Efficacy was measured according to ratings using the self-assessment questionnaire for mental fatigue and related symptoms (MFS) after neurological disorders and injuries (Johansson et al, supra). Another primary endpoint was the result of the rating by the Clinical Global Impression of Change (Guy, supra), which rating was made by the doctor in charge of the patient. CGI-C scores range from 1 (very much improved) through to 7 (very much worse). To examine the effect of treatment and concomitant use of an antidepressant, antidepressant was included as a fixed factor in the analyses. […] Outcome targets FF, MFS and BDI were measured.

[2] = test system: ME/CFS patients; assay: Clinical Global Impression of Change (CGI-C), phase II clinical study; conditions: for patients exhibiting improved CGI-C values: entire population
Description: As used herein “Clinical Global Impression of Change” (CGI-C) (also known as Clinical Global Impression—Improvement (CGI-I)) scale is a 7 point scale that requires the clinician to assess how much the patient's illness has improved or worsened relative to a baseline state at the beginning of the intervention. […] Circular coated tablets for oral use of 15 mg and matching placebos was used. The tablets were administered by research nurses at the study site. The tablets were circular coated tablets for oral use containing 15 mg OSU6162. Matching placebos were used. The start dose was 15 mg OSU6162 twice daily (before breakfast and lunch) during 1 week with dose increase up to 30 mg twice daily during the following week. Efficacy was measured according to ratings using the self-assessment questionnaire for mental fatigue and related symptoms (MFS) after neurological disorders and injuries (Johansson et al, supra). Another primary endpoint was the result of the rating by the Clinical Global Impression of Change (Guy, supra), which rating was made by the doctor in charge of the patient. CGI-C scores range from 1 (very much improved) through to 7 (very much worse). Clinical Global Impression of Change (CGI-C) was evaluated by the clinician for each patient.

[3] = test system: ME/CFS patients; assay: Stroop tests (Victoria version); design: Stroop 2, mean / Stroop 2, Difference / Stroop 2, median / Stroop 3, mean / Stroop 3, Difference / Stroop 3, median / Stroop 1, mean / Stroop 1, Difference / Stroop 1, median: unit not given here
Description: Next, patients were evaluated using a neuropsychological test. 61 patients were included in a neuropsychological examination. All subjects were tested once in connection with the randomization with the BNIS neuropsychological screening test. 20-30 minutes was required for this test. With the purpose of measuring the cognitive effects of the OSU6162 treatment six more tests were distributed at a first occasion before the initiation of treatment and at a second occasion after the treatment was completed. These tests required 20 minutes each. All tests were performed by a neuropsychologist. The Stroop test (Victoria version) is a time-based test sensitive to frontal lobe dysfunction. It measures executive functioning and is validated and used internationally. Depression and anxiety could influence the results. Speeds of processing and conceptual abilities contribute to the performance. It also reflects the ability of concentration. The test consists of three cards each containing six rows of four items. Stroop I is on the first card. In this subtest the subject must name as quickly as possible the color of 24 dots printed in blue, green, red and yellow. Each color is used six times and the four colors are arranged in pseudo-random order within the array, each color appears once in a row. Stroop 2 is on the second card. In this subtest the dots are replaced by common words printed in lower-case letters. The subject is required to name the colors in which the stimuli are presented and to disregard their verbal content. Stroop 3 is on the third card. In this subtest the colored stimuli are the color names “blue, green, red and yellow” printed in lower case letters so that the print color never corresponds to the color name.

[4] = test system: ME/CFS patients; assay: neuropsychological tests of cognitive functioning, overall; conditions: all neuropsychological tests employed; no significant difference vs placebo
[5] = test system: ME/CFS patients; assay: Trail making test A (TMT A)
Description: Next, patients were evaluated using a neuropsychological test. 61 patients were included in a neuropsychological examination. All subjects were tested once in connection with the randomization with the BNIS neuropsychological screening test. 20-30 minutes was required for this test. With the purpose of measuring the cognitive effects of the OSU6162 treatment six more tests were distributed at a first occasion before the initiation of treatment and at a second occasion after the treatment was completed. These tests required 20 minutes each. All tests were performed by a neuropsychologist. Trail making test A (TMT A) requires the subject to draw a line as quickly as possible connecting a series of numbers. It is a time-based measure of attention, where time and quality are noted and requires motor effectiveness, visual scanning, speed and flexibility. The test has a high sensitivity for brain dysfunction.

## CCCN1CCC[C@@H](c2cccc(S(C)(=O)=O)c2)C1.Cl [OSU6162, (3S)-3-[3-(methylsulfonyl)-phenyl]-1-propylpiperidine hydrochloride]
[1]; 2-way ANOVA, F1,60=3.997, p=0.050
  MFS overall group difference between OSU6162 and placebo: borderline significant trend
[1]; 3-way ANOVA week*treatm*antidepr, F3,180=2.755, p=0.044
  MFS interaction between treatment with OSU6162 and antidepressant over time: statistically significant 3-way interactions
[1]; 3-way analysis with antidepressant as fixed factor, F1,60=3.578, p=0.063
  MFS overall difference between OSU6162 and placebo: tendency to an overall difference
[1]; patients not on antidepressant therapy, post hoc comparison
  MFS difference between OSU6162 treated and placebo treated patients: No difference
[1]; patients on stable antidepressant therapy, after one week of treatment, F1,56=5.915, p=0.018, Bonferroni
  MFS change from week 0, difference OSU6162 vs placebo (95% CI): −4.82 (−8.79 to −0.85)
[2]; after one week of treatment (15 mg twice daily, oral), 13 of 30
  patients exhibiting improved CGI-C values: 43%
[2]; after two weeks of treatment (30 mg twice daily in week 2, oral), 17 of 30
  patients exhibiting improved CGI-C values: 57%
[2]; entire patient population
  difference in CGI-C between treatment groups (OSU6162 vs placebo): no significant difference
[2]; subgroup receiving concomitant antidepressant treatment, after one week, Mann-Whitney U-test p=0.0524
  CGI-C improvement vs placebo: clear tendency after one week for a greater improvement
[3]; after treatment
  Stroop 1, max: 20 s
  Stroop 1, mean: 12.77
  Stroop 1, median: 12
  Stroop 1, min: 8
  Stroop 2, max: 29 s
  Stroop 2, mean: 16.9
  Stroop 2, median: 16
  Stroop 2, min: 9
  Stroop 3, max: 62 s
  Stroop 3, mean: 23.48
  Stroop 3, median: 23
  Stroop 3, min: 12
[3]; before and after treatment
  Stroop tests difference between OSU6162 and placebo groups: No significant differences
[3]; before treatment
  Stroop 1, max: 22 s
  Stroop 1, mean: 13.97
  Stroop 1, median: 14
  Stroop 1, min: 9
  Stroop 2, max: 39 s
  Stroop 2, mean: 19.5
  Stroop 2, median: 19
  Stroop 2, min: 10
  Stroop 3, max: 51 s
  Stroop 3, mean: 26.8
  Stroop 3, median: 24
  Stroop 3, min: 14
[3]; before vs after treatment
  Stroop 1, Difference: 1.2
  Stroop 2, Difference: 3.2
  Stroop 3, Difference: 4.9
[4]
  effect of treatment on cognitive abilities: does not affect the cognitive abilities
[5]; after treatment
  TMT A, max: 48 s
  TMT A, mean: 28.5
  TMT A, median: 29
  TMT A, min: 15
[5]; before and after treatment
  TMT A difference between OSU6162 and placebo groups: No significant differences
[5]; before treatment
  TMT A, max: 57 s
  TMT A, mean: 33.4
  TMT A, median: 32
  TMT A, min: 16
[5]; before vs after treatment
  TMT A, Difference: 10

Reference: patent publication US10702512B2, “Treatment of debilitating fatigue” (A. CARLSSON RESEARCH AB, priority 2015, dated 2020)
